Marks after values point to notes of the source that are not given here.
Key:
Assay type in all cases: cell-based, human
XIAP = assay: Western blot assay on XIAP expression in trophoblastic cells; settings: mifepristone induced model, Blank = 1.000
Description: (§1) Hyperoside and asperosaponin are individual compounds isolated from herbal medicines cuscuta chinensis and taxillus sutchuenensis, respectively. Progesterone is a compound often used to prevent spontaneous abortion and was used in present invention as positive treatment control for comparison with of the novel composition of the present invention.
(§2) Extraction of total cellular protein and cytoplasmic protein: The cells 4×10^5 cells/ml were seeded in the 6-well plate. After incubating at 37° C., 5% CO2 for 44 hours, the cells are grouped and treated according to the experiment scheme (see above). Extraction conducted at two treatment points: 24-24 h (treat with agent for 24 hours and continue incubation for 24 hours after removing the agent) and 24-48 h (treat with agent for 24 hours and continue incubation for 48 hours after removing the agent). The assays were conducted as follows:
(§3) At each predetermined time point, discard the culture medium, wash the cells three times with cold PBS solution, 3 min each time. After removing PBS, put the cells on ice. Add lysis buffer, 150 μl per well, and then place the cells on ice for 5 min, scrape the surface cells and transfer the cell lysate to an EP tube. Put the tube on ice for 30 min. After centrifuge (4° C., 12000 rpm/min, 15 min), transfer the supernatant to the EP tube and store it at −20° C. Determine the protein concentration with the BCA method and adjust the protein concentration to the same level. Add 3 μl 5× SDS-PAGE sampling buffer, denature at 100° C. for 5 min, and store the samples at −20° C. for Western Blotting. The Western Blotting procedure was conducted in a standard manner known in the art, description of which is omitted herewith for the sake of brevity.

Bcl-2 mRNA = assay: Quantitative PCR assay on Bcl-2 mRNA; settings: ΔΔCt, mifepristone induced model, time point not given
Description: as §1
(§4) Design of primers: Based on search for the sequence of the target gene mRNA in GenBank, the following primers were designed: […]
(§5) Total RNA extraction: Cells 4×10^5 cells/ml were seeded in the 6-well plate, 1 ml per well, and incubated at 37° C., 5% CO2 for 48 h. Then, the cells were grouped and treated according to the experiment scheme (see above). Extraction was conducted at two time points: 24 h and 24-24 h (24 hours of agent treatment and 24 hours after removing the agent), according to the procedures described as follows:
(§6) Placed the cells in the 1.5 ml EP tube, add Trizol 1 ml, and mix by shaking. Add chloroform 0.2 ml, cover tightly, and shake vigorously for 15 s. Store it at 4° C. for 2-3 min, centrifugal at 4° C., 12000 rpm×15 min. Transfer the supernatant to a new 1.5 ml EP tube, add an equal volume of isopropanol, incubate at 4° C. for 10 min, and centrifuge 4° C., 12000 rpm×10 min. After discarding the supernatant, add 75% ethanol (containing DEPC water) to wash the precipitate once, centrifugal 4° C. 7500 rpm×5 min, and discard ethanol. Air or vacuum dry for 5-10 min (not completely dry), add DEPC water to dissolve RNA, store at −80° C. for further process.
(§7) Reverse transcription: In a sterile 0.2 ml centrifuge tubes, prepare the reaction according to the following:
(§8) Quantitative PCR:experimental design is in accordance with standard ΔΔCt analytical method. The experimental procedure is as follows:
(§9) (2) Prepare reaction mix (performed on ice):
(§10) (3) PCR reaction: using a standard three-step reaction procedure: […]

XIAP mRNA = assay: Quantitative PCR assay on XIAP mRNA; settings: ΔΔCt, mifepristone induced model, time point not given
Description: as §1, §4, §5, §6, §7, §8, §9, §10

β-HCG = assay: Radioimmunoassay on HCG expression in cell supernatant; settings: mifepristone induced model; duration of treatment 48 h
Description: as §1
The cells (4×10^5 cells/ml) were seeded in the 6-well plate, 1 ml per well, and incubated at 37° C., 5% CO2 for 48 hours. Then, the cells were grouped and treated accordingly (see above). After 48 hour treatment, cell supernatants were collected and sent to the Department of Nuclear Medicine, Guangzhou University of Traditional Chinese Medicine, for measuring HCG (human chorionic gonadotropin) via a routine radioimmunoassay procedure.

Caspase-3 mRNA = assay: Quantitative PCR assay on Caspase-3 mRNA; settings: ΔΔCt, mifepristone induced model, time point not given
Description: as §1, §4, §5, §6, §7, §8, §9, §10

trophoblast cells [1] = assay: MTT assay on cell proliferation in mifepristone induced trophoblast model; settings: Blank = 1.0000
Description: as §1
The trophoblast cells (adjust to 1.5×10^4/ml) were seeded in wells on a 96-well plate, […]. After incubating for 48 hours at 37° C., 5% CO2, the cells were grouped and treated accordingly (see above). Assays were conducted after treatment for 24 h and 48 h according to the following procedure:
Add 10 μl 1×MTT (3-(4,5-dimethylthiazol-2-yl)-2,5-diphenyltetrazolium bromide) to the well and continue incubation at 37° C., 5% CO2 for 4 hours to reduce MTT to formazan. Remove the supernatant from the well and add to each well 150 μl DMSO (dimethylsulfoxide) to dissolve formazan. After shaking the 96 plate for 10 min to make crystals completely dissolved, determine the OD value at 490 nm with a enzyme immunoassay analyzer. The determination was repeated three times.

Bax = assay: Western blot assay on Bax expression in trophoblastic cells; settings: mifepristone induced model, Blank = 1.000
Description: as §1, §2, §3

Bax mRNA = assay: Quantitative PCR assay on Bax mRNA; settings: ΔΔCt, mifepristone induced model, time point not given
Description: as §1, §4, §5, §6, §7, §8, §9, §10

Bcl-2 mRNA/Bax mRNA = assay: Quantitative PCR assay, Bcl-2 mRNA/Bax mRNA ratio; settings: ΔΔCt, mifepristone induced model, time point not given
Description: as §1, §4, §5, §6, §7, §8, §9, §10

trophoblast cells [2] = assay: Annexin V/PI flow cytometry assay on early stage apoptosis in Mifepristone-Trophoblast Cell Model; settings: comparative study, mifepristone induced model
Description: For example, the effect of apoptotic mRNA expressions in trophoblastic cells treated by mifepristone for 24 hours is shown in FIG. 3.
The experimental data on the cell proliferation rate, early apoptosis rate, Caspase-3 protein expression and cell supernatants HCG level expression were then subject to stepwise regression analysis, canonical correlation analysis and result optimization analysis. From these analyses, it is concluded that the preferred ratio among X1:X2:X3:X4:X5 is 0.9:0.00342:0.09037:0.0795:0. […] The number means the percentage of the cells underwent apoptosis.
as §1
The cells 4×10^5 cells/ml were seeded in the 6-well plate, 1 ml per well and incubated at 37° C., 5% CO2 for 48 h. Then, the cells were grouped and treated accordingly (see above). The assays were conducted as follows:
At the end of the predetermined treatment, the cells were digested and spun down(2000 rpm×5 min centrifugation). Discard the medium, wash the cells twice with cold PBS (resuspension and then 2000 rpm×5 min centrifugation). Remove the supernatant and resuspend the cell in 400 μl 1×Annexin V binding solution. Then, add 5 μl AnnexinV-EGFP staining solution to the cell suspension and mix gently. Incubate the cells at 2-8° C. in dark for 15 minutes. Add 10 μl PI (propidium iodide) and mix gently and incubate the cells in dark at 2-8° C. for 5 min. Detection by flow cytometry was conducted within one hour. The detection was repeated three times.

Caspase-9 = assay: Western blot assay on Caspase-9 expression in trophoblastic cells; settings: mifepristone induced model, Blank = 1.000
Description: as §1, §2, §3

Caspase-3 = assay: Western blot assay on Caspase-3 expression in trophoblastic cells; settings: mifepristone induced model, Blank = 1.000
Description: as §1, §2, §3

Caspase-9 mRNA = assay: Quantitative PCR assay on Caspase-9 mRNA; settings: ΔΔCt, mifepristone induced model, time point not given
Description: as §1, §4, §5, §6, §7, §8, §9, §10

BcI-2/Bax = assay: Western blot assay on Bcl-2/Bax expression ratio in trophoblastic cells; settings: mifepristone induced model, Blank = 1.000
Description: Hyperoside and asperosaponin are individual compounds isolated from herbal medicines cuscuta chinensis and taxillus sutchuenensis, respectively.
as §2, §3

SMILES	XIAP expression, relative amount of protein compared with Blank (XIAP; 24 h)	XIAP expression, relative amount of protein compared with Blank (XIAP; 48 h)	Bcl-2 mRNA level (Bcl-2 mRNA)	XIAPmRNA level (XIAP mRNA)	β-HCG level in cell supernatant (β-HCG)	Caspase-3 mRNA level (Caspase-3 mRNA)	cell proliferation rate as compared to the Blank (MTT) (trophoblast cells [1]; duration of treatment 24 h)	cell proliferation rate as compared to the Blank (MTT) (trophoblast cells [1]; duration of treatment 48 h)	Bax expression, relative amount of protein compared with Blank (Bax; 24 h)	Bax expression, relative amount of protein compared with Blank (Bax; 48 h)	BaxmRNA level (Bax mRNA)	Bcl-2 mRNA/BaxmRNA (Bcl-2 mRNA/Bax mRNA)	early stage apoptosis, percentage of cells underwent apoptosis (Annexin V FITC/PI) (trophoblast cells [2]; duration of treatment 24 h)	early stage apoptosis, percentage of cells underwent apoptosis (Annexin V FITC/PI) (trophoblast cells [2]; duration of treatment 48 h) [%]	Caspase-9 expression, relative amount of protein compared with Blank (Caspase-9; 24 h)	Caspase-9 expression, relative amount of protein compared with Blank (Caspase-9; 48 h)	Caspase-3 expression, relative amount of protein compared with Blank (Caspase-3; 24 h)	Caspase-3 expression, relative amount of protein compared with Blank (Caspase-3; 48 h)	Caspase-9 mRNA level (Caspase-9 mRNA)	BcI-2/Bax expression ratio, relative ratio of the proteins compared with Blank (BcI-2/Bax; 24 h)	other results
CC1(C)CC[C@]2(C(=O)O[C@@H]3O[C@H](CO[C@@H]4O[C@H](CO)[C@@H](O)[C@H](O)[C@H]4O)[C@@H](O)[C@H](O)[C@H]3O)CC[C@]3(C)C(=CC[C@@H]4[C@@]5(C)CC[C@H](O[C@@H]6OC[C@H](O)[C@H](O)[C@H]6O)[C@@](C)(CO)[C@@H]5CC[C@]43C)[C@@H]2C1 [Asperosaponin, asperosaponin]	2.127 ± 0.421	1.706 ± 0.492	4.908 ± 3.037	1.253 ± 1.540	0.870 ± 0.026 MIU/ML	2.783 ± 0.541	0.787 ± 0.086	0.809 ± 0.019	1.503 ± 0.180^ΔΔ▾▾	1.804 ± 0.558	3.181 ± 1.576	1.88 ± 1.196	16.067 ± 2.974 **^ΔΔ %	15.933 ± 3.742	1.962 ± 0.273^Δ	1.887 ± 0.742	1.372 ± 0.338^Δ	1.508 ± 0.217*^ΔΔ▴▴□	1.240 ± 0.945	1.905 ± 0.297**^ΔΔ∇∇▴▴	BcI-2/Bax expression ratio, relative ratio of the proteins compared with Blank (BcI-2/Bax; 48 h): 1.503 ± 0.454
O=c1c(O[C@@H]2O[C@H](CO)[C@H](O)[C@H](O)[C@H]2O)c(-c2ccc(O)c(O)c2)oc2cc(O)cc(O)c12 [Hyperoside, hyperoside]	1.528 ± 0.317	1.673 ± 0.768	2.726 ± 1.419	1.315 ± 0.706	1.377 ± 0.142 MIU/ML	4.640 ± 1.865^Δ	0.788 ± 0.072	0.869 ± 0.029	1.687 ± 0.519*^ΔΔ▴▴▾▾	2.544 ± 0.383	2.469 ± 1.058^Δ	1.470 ± 1.321	16.367 ± 1.942 **^ΔΔ %	15.633 ± 2.136	2.079 ± 0.267^Δ	2.221 ± 0.651	1.847 ± 0.123	1.648 ± 0.206**^Δ▴	3.512 ± 3.828	1.544 ± 0.726^ΔΔ∇∇	BcI-2/Bax expression ratio, relative ratio of the proteins compared with Blank (BcI-2/Bax; 48 h): 0.518 ± 0.186
CC(=O)[C@H]1CC[C@H]2[C@@H]3CCC4=CC(=O)CC[C@]4(C)[C@H]3CC[C@]12C [Positive Control, progesterone]			2.971 ± 2.839	1.037 ± 0.425	1.067 ± 0.038*^Δ MIU/ML	3.089 ± 1.778^ΔΔ	0.805 ± 0.030	0.825 ± 0.061			0.442 ± 0.442^ΔΔ	7.351 ± 6.001	17.400 ± 1.229 **^ΔΔ %	16.367 ± 1.447					1.286 ± 0.780	0.537 ± 0.051	

Reference: US20160089410A1, “COMPOSITION FOR NOURISHING INJURED HUMAN TROPHOBLAST CELLS AND INHIBITING APOPTOSIS THEREIN” (priority 2014, published 2016)
